Values quoted from earlier work in patent publication US8758823B2, “Method for obtaining non-water-soluble powders having antimicrobial activity, the powders thus obtained and the antibacterial use thereof” (Poly-Bio, priority 2009, dated 2014).

Test system: Staphylococcus aureus
Settings: quaternary ammonium chloride in aqueous solution; AKZO NOBEL guideline formulation

For `CCCCCCCCCC[N+](C)(C)CCCCCCCCCC.[Cl-]` [ARQUAD 210-50, didecyl dimethyl ammonium chloride], the “concentration recommended to obtain the same result (reduction greater than 5 Log)” value is given as 12 to 16 ppm.
